Experimental data from PubChem BioAssay AID1918943 (Molecular Pharmacology Branch, DTP, NCI, 2023).

Test system: 855422-203-R-J1-PDC complex spheroid viability
Experiment: Anticancer human tumor 855422-203-R-J1-PDC patient-derived bladder carcinoma cell line growth inhibition
Conditions: for IC50: curve of first compound; for viability, T/C: stronger effect = lower value; active = viability on the fitted dose curve at most 10% of control; inactive = the rest
In short: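 Multicellular complex spheroids of tumor cells with human endothelial cells (HUVEC) and mesenchymal stem cells; the LSD1 inhibitor iadademstat was combined with standard-of-care or investigational agents. Top concentration at or near clinical Cmax, half-log dilutions; final DMSO ≤0.25%.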

[1] = second compound 0.1 µM, first compound 0.00316 µM
[2] = second compound 0.1 µM, first compound 0.01 µM
[3] = second compound 0.1 µM, first compound 0.0316 µM
[4] = second compound 0.1 µM, first compound 0.1 µM
[5] = second compound 0.1 µM, first compound 0.316 µM
[6] = second compound 0.1 µM, first compound 1 µM
[7] = second compound 0.316 µM, first compound 0.00316 µM
[8] = second compound 0.316 µM, first compound 0.01 µM
[9] = second compound 0.316 µM, first compound 0.0316 µM
[10] = second compound 0.316 µM, first compound 0.1 µM
[11] = second compound 0.316 µM, first compound 0.316 µM
[12] = second compound 0.316 µM, first compound 1 µM
[13] = second compound 1 µM, first compound 0.00316 µM
[14] = second compound 1 µM, first compound 0.01 µM
[15] = second compound 1 µM, first compound 0.0316 µM
[16] = second compound 1 µM, first compound 0.1 µM
[17] = second compound 1 µM, first compound 0.316 µM
[18] = second compound 1 µM, first compound 1 µM
[19] = second compound 3.16 µM, first compound 0.00316 µM
[20] = second compound 3.16 µM, first compound 0.01 µM
[21] = second compound 3.16 µM, first compound 0.0316 µM
[22] = second compound 3.16 µM, first compound 0.1 µM
[23] = second compound 3.16 µM, first compound 0.316 µM
[24] = second compound 3.16 µM, first compound 1 µM
[25] = second compound 10 µM, first compound 0.00316 µM
[26] = second compound 10 µM, first compound 0.01 µM
[27] = second compound 10 µM, first compound 0.0316 µM
[28] = second compound 10 µM, first compound 0.1 µM
[29] = second compound 10 µM, first compound 0.316 µM
[30] = second compound 10 µM, first compound 1 µM
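Note: drug exposure lasted 7 days starting on day 3 after seeding.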
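Throughout, for viability, T/C: luminescence viability as percent of DMSO vehicle wells = 100%.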

O=C(C=Cn1cnc(-c2cc(C(F)(F)F)cc(C(F)(F)F)c2)n1)NNc1cnccn1 + NC1CC1c1ccc(-c2cccc(O)c2)cc1
0.0253 µM: IC50 (second compound 0.316 µM)
0.0239 µM: IC50 (second compound 1 µM)
0.0232 µM: IC50 (second compound 10 µM)
inactive: viability, T/C [1] 133% | viability, T/C [2] 75.4% | viability, T/C [3] 44.4% | viability, T/C [4] 35.1% | viability, T/C [5] 27.6% | viability, T/C [6] 16.2% | viability, T/C [7] 121% | viability, T/C [8] 75% | viability, T/C [9] 40.5% | viability, T/C [10] 32.6% | viability, T/C [11] 28.2% | viability, T/C [12] 17.7% | viability, T/C [13] 121% | viability, T/C [14] 71.1% | viability, T/C [15] 38.9% | viability, T/C [16] 34.8% | viability, T/C [17] 29.3% | viability, T/C [18] 16.8% | viability, T/C [19] 112% | viability, T/C [20] 68.3% | viability, T/C [21] 36.8% | viability, T/C [22] 33.5% | viability, T/C [23] 26.6% | viability, T/C [24] 18.9% | viability, T/C [25] 97.8% | viability, T/C [26] 70.3% | viability, T/C [27] 39.7% | viability, T/C [28] 33.3% | viability, T/C [29] 31% | viability, T/C [30] 20.1%
0.0278 µM: IC50 (second compound 0.1 µM)
0.0214 µM: IC50 (second compound 3.16 µM)

COc1cc(C2c3cc4c(cc3C(OC3OC5COC(C)OC5C(O)C3O)C3COC(=O)C23)OCO4)cc(OC)c1O (stereo not given) + NC1CCC(NC2CC2c2ccccc2)CC1
inactive: viability, T/C (second compound 0.1 µM, first compound 0.00949 µM) 89.8% | viability, T/C (second compound 0.1 µM, first compound 0.03 µM) 87.1% | viability, T/C (second compound 0.1 µM, first compound 0.0949 µM) 57.6% | viability, T/C (second compound 0.1 µM, first compound 0.3 µM) 35.6% | viability, T/C (second compound 0.1 µM, first compound 0.949 µM) 18.5% | viability, T/C (second compound 0.1 µM, first compound 3 µM) 9.63% | viability, T/C (second compound 0.316 µM, first compound 0.00949 µM) 92% | viability, T/C (second compound 0.316 µM, first compound 0.03 µM) 86.4% | viability, T/C (second compound 0.316 µM, first compound 0.0949 µM) 55.4% | viability, T/C (second compound 0.316 µM, first compound 0.3 µM) 34.6% | viability, T/C (second compound 0.316 µM, first compound 0.949 µM) 19.5% | viability, T/C (second compound 0.316 µM, first compound 3 µM) 10.1% | viability, T/C (second compound 1 µM, first compound 0.00949 µM) 85.2% | viability, T/C (second compound 1 µM, first compound 0.03 µM) 81.9% | viability, T/C (second compound 1 µM, first compound 0.0949 µM) 56.9% | viability, T/C (second compound 1 µM, first compound 0.3 µM) 31.7% | viability, T/C (second compound 1 µM, first compound 0.949 µM) 16.4% | viability, T/C (second compound 3.16 µM, first compound 0.00949 µM) 85% | viability, T/C (second compound 3.16 µM, first compound 0.03 µM) 84.9% | viability, T/C (second compound 3.16 µM, first compound 0.0949 µM) 53.6% | viability, T/C (second compound 3.16 µM, first compound 0.3 µM) 30.5% | viability, T/C (second compound 3.16 µM, first compound 0.949 µM) 17% | viability, T/C (second compound 3.16 µM, first compound 3 µM) 8.59% | viability, T/C (second compound 10 µM, first compound 0.00949 µM) 78.4% | viability, T/C (second compound 10 µM, first compound 0.03 µM) 79.7% | viability, T/C (second compound 10 µM, first compound 0.0949 µM) 57.7% | viability, T/C (second compound 10 µM, first compound 0.3 µM) 26.8% | viability, T/C (second compound 10 µM, first compound 0.949 µM) 15.8% | viability, T/C (second compound 10 µM, first compound 3 µM) 8.09%
0.137 µM: IC50 (second compound 1 µM)
active: viability, T/C (second compound 1 µM, first compound 3 µM) 8.66%
0.128 µM: IC50 (second compound 3.16 µM)
0.153 µM: IC50 (second compound 0.1 µM)
0.142 µM: IC50 (second compound 0.316 µM)
0.13 µM: IC50 (second compound 10 µM)

Nc1ncn(C2CC(O)C(CO)O2)c(=O)n1 (stereo not given) + NC1CCC(NC2CC2c2ccccc2)CC1
> 1 µM: IC50 (second compound 0.1 µM) | IC50 (second compound 0.316 µM) | IC50 (second compound 1 µM) | IC50 (second compound 3.16 µM) | IC50 (second compound 10 µM)
inactive: viability, T/C [1] 91.5% | viability, T/C [2] 91.2% | viability, T/C [3] 95.6% | viability, T/C [4] 85.5% | viability, T/C [5] 83.1% | viability, T/C [6] 85.2% | viability, T/C [7] 93.6% | viability, T/C [8] 93.1% | viability, T/C [9] 90.2% | viability, T/C [10] 92.2% | viability, T/C [11] 83% | viability, T/C [12] 84.7% | viability, T/C [13] 88.6% | viability, T/C [14] 94.5% | viability, T/C [15] 93.6% | viability, T/C [16] 86.4% | viability, T/C [17] 90.1% | viability, T/C [18] 85.3% | viability, T/C [19] 87.5% | viability, T/C [20] 81.1% | viability, T/C [21] 79.7% | viability, T/C [22] 91.4% | viability, T/C [23] 85.9% | viability, T/C [24] 88.9% | viability, T/C [25] 84.3% | viability, T/C [26] 86.9% | viability, T/C [27] 85.3% | viability, T/C [28] 88.4% | viability, T/C [29] 88.2% | viability, T/C [30] 80.5%
